# Reference: patent US20230100838A1 (Revolution Medicines, Inc., priority 2019, published 2023)
# How the values were obtained:
# Assay type in all cases: binding
# [1] = target: T1, GDP-loaded K-Ras (1-169) G12D, C51S, C80L, C118S (Homo sapiens, UniProt P01116, C118S/C51S/C80L/G12D); assay: K-Ras G12D(GDP) cross-linking assay (conjugate formation, TOF mass spectrometry); parameters: key: 0: No observed x-linking; +: 0 < x ≤ 20; ++: 20 < x ≤ 40; +++: 40 < x ≤ 100; conditions: Table 4; percent covalently modified K-Ras by MS; room temperature; typical compound conc. 2, 10, 25 μM, endpoints 1 and 24 h
# T1 construct: GDP-loaded K-Ras (1-169) G12D, C51S, C80L, C118S
# Outline: (§1)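 5 μM protein (final, from 50 μM) in HEPES/NaCl/MgCl2 buffer pH 7.4 with compound typically at 2, 10 and 25 μM, room temperature, 1 and 24 h endpoints; formic acid quench. Intact-protein LC–TOF MS; percent modification is covalent adduct peak height over total K-Ras peak height.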
# [2] = target: T2, GDP-loaded K-Ras (1-169) C51S, C80L, C118S (Homo sapiens, UniProt P01116, C118S/C51S/C80L); assay: K-Ras WT (GDP) cross-linking assay (conjugate formation, TOF mass spectrometry); parameters: key: 0: No observed x-linking; +: 0 < x ≤ 20; ++: 20 < x ≤ 40; +++: 40 < x ≤ 100; conditions: Table 4; percent covalently modified K-Ras by MS; room temperature; typical compound conc. 2, 10, 25 μM, endpoints 1 and 24 h
# T2 construct: GDP-loaded K-Ras (1-169) C51S, C80L, C118S
# Outline: as §1
# K-Ras G12S = K-Ras G12S (Homo sapiens, UniProt P01116, G12S); assay: K-Ras G12S cross-linking assay (comparable procedure, conjugate formation, TOF mass spectrometry); parameters: key: 0: No observed x-linking; conditions: Table 4, percent covalently modified K-Ras by MS
# Procedure: Protocol: K-Ras G12D(GDP) Cross-Linking Assay
# Note: while the following protocol outlines the procedure for K-Ras G12D(GDP), a person of skill in the art may substitute other Ras proteins, and may also substitute a non-hydrolyzable GTP analog for GDP to study GTP bound Ras protein.
# GDP-loaded K-Ras (1-169) G12D, C51S, C80L, C118S and GDP-loaded K-Ras (1-169) C51S, C80L, C118S were adjusted to 50 μM in K-Ras assay buffer (12.5 mM HEPES, 75 mM NaCl and 1 mM MgCl2 at pH 7.4). A 5 μL aliquot of each protein solution was added to each well of a 96-well microplate containing 40 μL of assay buffer. Initial compound stocks were prepared in DMSO at 100 times their final assay concentration. Compounds were then diluted 10-fold into K-Ras assay buffer to 10 times their final concentration. A 5 μL aliquot of each diluted compound solution was added to each protein solution in the 96-well microplate to initiate the reaction, which then proceeded at room temperature. Typical final compound concentrations were 2, 10, and 25 μM. At each time point, the reactions were analyzed immediately or quenched with 5 μL of a 5% formic acid solution and kept at 4° C. until analysis. Typical assay endpoints were 1 and 24 h.
# Data collection took place on an Agilent 6230 TOF Mass Spectrometer. Complete reactions were injected onto a C4 reverse-phase column to separate protein from buffer components prior to entering the mass spectrometer. The proteins were eluted from the column by increasing acetonitrile fraction in the mobile phase and fed directly into the mass analyzer. Initial analysis of raw data took place in Agilent MassHunter BioConfirm software and consisted of deconvolution of multiple protein charge states with the maximum entropy algorithm, with a mass step of 1 Da. The heights of all deconvoluted protein masses were exported for further data analysis. The percent modification of each protein was then determined by calculating the peak height of the covalently modified K-Ras species as a percentage of the sum total of K-Ras protein peak height.
SMILES,G12D x-linking (%) [1],WT x-linking (%) [2],G12S x-linking (%) (K-Ras G12S)
"Fc1ccccc1-c1c(Cl)cc2c(N3CCC(NC4=NCCO4)CC3)ncnc2c1F [Example 13, N-(1-(6-chloro-8-fluoro-7-(2-fluorophenyl)quinazolin-4-yl)piperidin-4-yl)-4,5-dihydrooxazol-2-amine]",+ (0 < x ≤ 20),+ (0 < x ≤ 20),+ (0 < x ≤ 10)
"Fc1ccccc1-c1c(Cl)cc2c(N3CCN(C4=NCCO4)CC3)ncnc2c1F [Example 14, 2-(4-(6-chloro-8-fluoro-7-(2-fluorophenyl)quinazolin-4-yl)piperazin-1-yl)-4,5-dihydrooxazole]",+ (0 < x ≤ 20),+ (0 < x ≤ 20),+ (0 < x ≤ 10)
"Fc1ccccc1-c1c(Cl)cc2c(NCCNC3=NCCO3)ncnc2c1F [Example 15, N-(6-chloro-8-fluoro-7-(2-fluorophenyl)quinazolin-4-yl)-N^2-(4,5-dihydrooxazol-2-yl)ethane-1,2-diamine]",+ (0 < x ≤ 20),+ (0 < x ≤ 20),+ (0 < x ≤ 10)
"O=C(C1CN1)N1CCN(c2ncnc3c(F)c(-c4ccccc4F)c(Cl)cc23)CC1 (stereo not drawn) [Example 16, aziridin-2-yl(4-(6-chloro-8-fluoro-7-(2-fluorophenyl)quinazolin-4-yl)piperazin-1-yl)methanone]",+ (0 < x ≤ 20),+ (0 < x ≤ 20),+ (0 < x ≤ 10)
"CC(=O)N1CC1C(=O)N1CCN(c2ncnc3c(F)c(-c4ccccc4F)c(Cl)cc23)CC1 (stereo not drawn) [Example 17, 1-(2-(4-(6-chloro-8-fluoro-7-(2-fluorophenyl)quinazolin-4-yl)piperazine-1-carbonyl)aziridin-1-yl)ethan-1-one]",+ (0 < x ≤ 20),+ (0 < x ≤ 20),+ (0 < x ≤ 10)
"O=C(C1CCN(c2ncnc3c(F)c(-c4ccccc4F)c(Cl)cc23)CC1)C(F)(F)F [Example 18, 1-(1-(6-chloro-8-fluoro-7-(2-fluorophenyl)quinazolin-4-yl)piperidin-4-yl)-2,2,2-trifluoroethan-1-one]",0,0,0
"OB(O)C1CCN(c2ncnc3c(F)c(-c4ccccc4F)c(Cl)cc23)CC1 [Example 19, (1-(6-chloro-8-fluoro-7-(2-fluorophenyl)quinazolin-4-yl)piperidin-4-yl)boronic Acid]",0,0,0
"COCCN=C=NC1CCN(c2nc(OC[C@@H]3CCCN3C)nc3c2CCN(c2cccc4cccc(C)c24)C3)CC1 [Example 20, N-(2-methoxyethyl)-N-(1-(7-(8-methylnaphthalen-1-yl)-2-(((S)-1-methylpyrrolidin-2-yl)methoxy)-5,6,7,8-tetrahydropyrido[3,4-d]pyrimidin-4-yl)piperidin-4-yl)methanediimine]",+++ (40 < x ≤ 100),++ (20 < x ≤ 100),++ (10 < x ≤ 100)
"CN=C=NC1CCN(c2nc(OC[C@@H]3CCCN3C)nc3c2CCN(c2cccc4cccc(C)c24)C3)CC1 [Example 21, N-methyl-N-(1-(7-(8-methylnaphthalen-1-yl)-2-(((S)-1-methylpyrrolidin-2-yl)methoxy)-5,6,7,8-tetrahydropyrido[3,4-d]pyrimidin-4-yl)piperidin-4-yl)methanediimine]",+++ (40 < x ≤ 100),++ (20 < x ≤ 100),++ (10 < x ≤ 100)
"CCCN=C=NC1CCN(c2nc(OC[C@@H]3CCCN3C)nc3c2CCN(c2cccc4cccc(C)c24)C3)CC1 [Example 22, N-(1-(7-(8-methylnaphthalen-1-yl)-2-(((S)-1-methylpyrrolidin-2-yl)methoxy)-5,6,7,8-tetrahydropyrido[3,4-d]pyrimidin-4-yl)piperidin-4-yl)-N-propylmethanediimine]",+++ (40 < x ≤ 100),++ (20 < x ≤ 100),++ (10 < x ≤ 100)
"Cc1cccc2cccc(N3CCc4c(nc(OC[C@@H]5CCCN5C)nc4N4CCC(N=C=NC(C)C)CC4)C3)c12 [Example 23, N-isopropyl-N-(1-(7-(8-methylnaphthalen-1-yl)-2-(((S)-1-methylpyrrolidin-2-yl)methoxy)-5,6,7,8-tetrahydropyrido[3,4-d]pyrimidin-4-yl)piperidin-4-yl)methanediimine]",++ (20 < x ≤ 40),+ (0 < x ≤ 20),++ (10 < x ≤ 100)
"Cc1cccc2cccc(N3CCc4c(nc(OC[C@@H]5CCCN5C)nc4N4CCC(N=C=NCc5ccccc5)CC4)C3)c12 [Example 24, N-benzyl-N-(1-(7-(8-methylnaphthalen-1-yl)-2-(((S)-1-methylpyrrolidin-2-yl)methoxy)-5,6,7,8-tetrahydropyrido[3,4-d]pyrimidin-4-yl)piperidin-4-yl)methanediimine]",+ (0 < x ≤ 20),+ (0 < x ≤ 20),+ (0 < x ≤ 10)
"COCCCN=C=NC1CCN(c2nc(OC[C@@H]3CCCN3C)nc3c2CCN(c2cccc4cccc(C)c24)C3)CC1 [Example 25, N-(3-methoxypropyl)-N-(1-(7-(8-methylnaphthalen-1-yl)-2-(((S)-1-methylpyrrolidin-2-yl)methoxy)-5,6,7,8-tetrahydropyrido[3,4-d]pyrimidin-4-yl)piperidin-4-yl)methanediimine]",+++ (40 < x ≤ 100),++ (20 < x ≤ 100),++ (10 < x ≤ 100)
"CCCN=C=NCCN(C)c1nc(OC[C@@H]2CCCN2C)nc2c1CCN(c1cccc3cccc(C)c13)C2 [Example 26, N-methyl-7-(8-methylnaphthalen-1-yl)-2-(((S)-1-methylpyrrolidin-2-yl)methoxy)-N-(2-(((propylimino)methylene)amino)ethyl)-5,6,7,8-tetrahydropyrido[3,4-d]pyrimidin-4-amine]",+++ (40 < x ≤ 100),++ (20 < x ≤ 100),++ (10 < x ≤ 100)
"Cc1cccc2cccc(N3CCc4c(nc(OC[C@@H]5CCCN5C)nc4N(C)CCN=C=NCc4ccccc4)C3)c12 [Example 27, N-(2-(((benzylimino)methylene)amino)ethyl)-N-methyl-7-(8-methylnaphthalen-1-yl)-2-(((S)-1-methylpyrrolidin-2-yl)methoxy)-5,6,7,8-tetrahydropyrido[3,4-d]pyrimidin-4-amine]",++ (20 < x ≤ 40),+ (0 < x ≤ 20),++ (10 < x ≤ 100)
"Cc1cccc2cccc(N3CCc4c(nc(OC[C@@H]5CCCN5C)nc4N(C)CCN=C=NCc4ccc(Cl)cc4)C3)c12 [Example 28, N-(2-((((4-chlorobenzyl)imino)methylene)amino)ethyl)-N-methyl-7-(8-methylnaphthalen-1-yl)-2-(((S)-1-methylpyrrolidin-2-yl)methoxy)-5,6,7,8-tetrahydropyrido[3,4-d]pyrimidin-4-amine]",++ (20 < x ≤ 40),+ (0 < x ≤ 20),++ (10 < x ≤ 100)
